Biological target: Cruzain (Trypanosoma cruzi, UniProt P25779)
Test: Cysteine protease inhibition, progress curve method, cruzain
Type: biochemical
Conditions: 4 uM Ac-Lys-Glu-Lys-Leu-Arg-AMC, 100 mM Na acetate pH 5.5, 5 mM cysteine; read-out: Cruzain Ki
Procedure: Standard assay conditions for the determination of kinetic constants used 10 uM fluorogenic peptide substrate, Cbz-Phe-Arg-AMC for the cysteine proteases from Leishmania spp and Schistosoma Mansoni, Cbz-Leu-Arg-AMC for the cysteine proteases from Plasmodium falciparum and Trypanosoma brucei rhodesiensi, and Ac-Lys-Glu-Lys-Leu-Arg-AMC (4 uM final substrate concentration) for the cysteine protease from Trypoanosoma cruzi, and were determined in 100 mM Na acetate at pH 5.5 containing 5 mM cysteine. Stock substrate solutions were prepared at concentrations of […] in DMSO with 10 uM (4 uM for Ac-Lys-Glu-Lys-Leu-Arg-AMC) final substrate concentration in the assays. The final DMSO concentration was 2% and the final volume was 100 uL. All assays were conducted at ambient temperature. Product progress curves were generated over 20 to 30 minutes following formation of AMC product.
Potential inhibitors were evaluated using the progress curve method. Assays were carried out in the presence of variable concentrations of test compound. Reactions were initiated by addition of enzyme to buffered solutions of inhibitor and substrate. Data analysis was conducted according to one of two procedures depending on the appearance of the progress curves in the presence of inhibitors. For those compounds whose progress curves were linear, apparent inhibition constants (Ki,app) were calculated according to equation 1 (Brandt et al., Biochemitsry, 1989, 28, 140):
v=VmA/[Ka(1+I/Ki,app)+A] (1)
Where v is the velocity of the reaction with maximal velocity Vm, A is the concentration of substrate with Michaelis constant of Ka, and I is the concentration of inhibitor.
[AMC]=vsst+(v0−vss)[1−exp (−kobst)]/kobs (2)
Where [AMC] is the concentration of product formed over time t, v0 is the initial reaction velocity and vss is the final steady state rate. Values for kobs were then analyzed as a linear function of inhibitor concentration to generate an apparent second order rate constant (kobs/inhibitor concentration or kobs/[I]) describing the time-dependent inhibition. A complete discussion of this kinetic treatment has been fully described (Morrison et al., Adv. Enzymol. Relat. Areas Mol. Biol., 1988, 61, 201).
Exemplary inhibition data for the compounds used in the present method collected in accordance with the above-described procedure are listed in Table I.

Cruzain, sequence (P25779 123-337): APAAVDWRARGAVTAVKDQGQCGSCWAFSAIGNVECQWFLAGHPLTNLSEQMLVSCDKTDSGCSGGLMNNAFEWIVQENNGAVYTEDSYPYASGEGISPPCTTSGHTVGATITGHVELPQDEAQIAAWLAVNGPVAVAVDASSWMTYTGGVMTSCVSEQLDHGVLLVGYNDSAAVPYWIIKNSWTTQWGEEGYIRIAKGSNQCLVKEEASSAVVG

| Molecule | Ki [nM] |
| --- | --- |
| CC(C)C[C@H](NC(=O)c1cc2ccccc2s1)C(=O)NC1CCCN(S(C)(=O)=O)CC1=O (stereo partly drawn) [Example 111, Benzo[b]thiophene-2-carboxylic acid-{(S)-1-(1-methanesulfonyl-3-oxo-azepan-4-ylcarbamoyl)-3-methyl-butyl]-amide] | 18 |
| 4-[2-(2-{(S)-3-Methyl-1[3-oxo-1-(pridine-2-sulfonyl)-azepan-4-ylcarbamoyl]-butylcarbamoyl}-benzofuran-5-yloxy)-ethyl]-piperazine-1-carboxylic acid tert-butyl ester [Example 22] | 14 |
| COc1ccc(S(=O)(=O)N2CCCC(NC(=O)C(CC(C)C)NC(=O)c3cc4ccccc4o3)C(=O)C2)cc1 (stereo in doubt) [Example 74, Benzofuran-2-carboxylic acid {(S)-1-[1-(4-methoxy-benzenesulfonyl)-3-oxo-azepan-4-ylcarbamoyl]-3-methyl-butyl}-amide] | 24 |
| CC(C)C[C@H](NC(=O)[C@H]1CCC(=O)N1Cc1ccccc1)C(=O)N[C@@H]1CCCN(S(=O)(=O)c2ccccn2)CC1=O [Example 158] | 6.8 |
| Cc1cccc(S(=O)(=O)N2CCC[C@@H](NC(=O)[C@@H](CC(C)C)NC(=O)c3cc4ccccc4o3)C(=O)C2)n1 (stereo in doubt) [Example 172, Benzofuran-2-carboxylic acid {(S)-3-methyl-1-[1-(6-methyl-pyridine-2-sulfonyl)-3-oxo-azepan-4-ylcarbamoyl]-butyl}amide] | 7.4 |
| CCCC[C@H](NC(=O)c1cc2ccccc2o1)C(=O)NC1CCCN(S(=O)(=O)c2ccccn2)CC1=O (stereo partly drawn) [Example 103, Benzofuran-2-carboxylic acid{(S)-1-[3-oxo-1-(pyridine-2-sulfonyl)-azepan-4-ylcarbamoyl]-pentyl}-amide] | 60 |
| CC(C)C[C@@H](NC(=O)c1cc2cc(OCCN3CCOCC3)ccc2o1)C(=O)NC1CCCN(S(=O)(=O)c2cccc[n+]2[O-])CC1=O (stereo partly drawn) [Example 56, 5-(2-Morpholin-4-yl-ethoxy)-benzofuran-2-carboxylic acid {(S)-3-methyl-1-[3-oxo-(1-oxy-pyridine2-sulfonyl)-azepan-4-ylcarbamoyl]-buty}-amide] | 7.8 |
| CC(C)CCC(=O)N1CCCC(NC(=O)[C@@H](CC(C)C)NC(=O)c2cc3cc(OCCN4CCOCC4)ccc3o2)C(=O)C1 (stereo partly drawn) [Example 15, 5-(2-Morpholino-4-yl-ethoxy)-benzofuran-2-carboxylic acid {(S)-3-methyl-1-[1-(4-methyl-2entanoyl)-3-oxo-azepan-4-ylcarbamoyl]-butyl}-amide] | 24 |
| CC(C)C[C@@H](NC(=O)c1cc(Br)c(Br)s1)C(=O)N[C@@H]1CCCN(S(=O)(=O)c2cccc[n+]2[O-])CC1=O [Example 61, 4,5-Dibromo-thiophene-2-carboxylic acid {(S)-3-methyl-1-[3-oxo-1-(1-oxy-pyridine-2-sulfonyl)-azepan-4-ylcarbamoyl]-butyl}amide] | 40 |
| CC(C)C[C@@H](NC(=O)c1cc2cc(OCCN3CCOCC3)ccc2o1)C(=O)N[C@@H]1CCCN(S(=O)(=O)c2ccccn2)CC1=O (single isomer, unassigned) [Example 20] | 8 |
| CC(C)C[C@@H](NC(=O)c1cc2cc(OCCN3CCOCC3)ccc2o1)C(=O)N[C@@H]1CCCN(S(=O)(=O)c2ccccn2)CC1=O [Example 18, 5-(2-Morpholino-4-yl-ethoxy)-benzofuran-2-carboxylic acid {(S)-3-methyl-1-[3-oxo-1-(pyridine-2-sulfonyl)-azepan-4-ylcarbamoyl]-butyl}1-amide] | 6.3 |
| CC(C)C[C@H](NC(=O)c1cc2ccccc2o1)C(=O)N[C@H]1CCCN(S(=O)(=O)c2ccccc2F)CC1=O [Example 91] | 6.2 |
| CC(C)C[C@@H](NC(=O)c1ccc(S(C)(=O)=O)cc1)C(=O)N[C@@H]1CCCN(S(=O)(=O)c2ccc(F)cc2)CC1=O [Example 121, 4-Methansulfonyl-N—{(S)-1-[4-fluoro-benzenesulfonyl)-3-oxo-azepan-4-carbamoyl]-3-methyl-butyl-benzamide] | 11 |
| CC(C)C[C@@H](NC(=O)c1cc2cc(OCCN3CCCC3)ccc2o1)C(=O)N[C@@H]1CCCN(S(=O)(=O)c2ccccc2)CC1=O (stereo in doubt) [Example 8, 5-(2-Pyrrolidin-1-yl-ethoxy)-benzofuran-2-carboxylic acid [(S)-1-(1-benzenesulfonyl-3-oxo-azepan-4-ylcarbamoyl)-3-methyl-butyl]amide] | 8 |
| COc1ccc(S(=O)(=O)N2CCC[C@H](NC(=O)[C@H](CC(C)C)NC(=O)CNC(=O)c3ccco3)C(=O)C2)cc1 [Example 82] | 17 |
| CC(C)C[C@@H](NC(=O)c1cc2ccccc2[nH]1)C(=O)N[C@@H]1CCCN(S(=O)(=O)c2ccccc2)CC1=O (stereo in doubt) [Example 11, 1H-Indole-2-carboxylic acid [(S)-1-(1-benzenesulfonyl-3-oxo-azepan-4-ylcarbamoyl)-3-methyl-butyl]amide] | 100 |
| Cc1ccc(C(=O)N[C@H](CC(C)C)C(=O)N[C@@H]2CCCN(S(=O)(=O)c3cccc[n+]3[O-])CC2=O)cn1 [Example 118] | 18 |
| CC(C)C[C@@H](NC(=O)c1nccc2ccccc12)C(=O)N[C@@H]1CCCN(S(=O)(=O)c2ccccn2)CC1=O (stereo in doubt) [Example 29, Isoquinoline-1-carboxylic acid {(S)-3-methyl-1-[3-oxo-1-(pyridine-2-sulfonyl)-azepan-4-ylcarbamoyl]-butyl}amide] | 11 |
| CC(C)C[C@H](NC(=O)c1cc2ccccc2o1)C(=O)N[C@H]1CCCN(S(=O)(=O)c2cccs2)CC1=O [Example 38, Benzofuran-2-carboxylic acid {(S)-3-methyl-1-[3-oxo-1-(thiophene-2-sulfonyl)-azepan-4-ylcarbamoyl]-butyl}-amide] | 4.5 |
| CC(C)CC(NC(=O)c1cc2ccccc2o1)C(=O)NC1CCC(C)N(S(=O)(=O)c2ccccn2)CC1=O (stereo in doubt) [Example 181, Benzofuran-2-carboxylic acid {(S)-3-methyl-1-[(4S,7S)-7-methyl-3-oxo-1-(pyridine-2-sulfonyl)-azepan-4-ylcarbamoyl]-butyl}-amide] | 15 |
| CC(C)C[C@H](NC(=O)c1cc2ccccc2s1)C(=O)N[C@H]1CCCN(S(=O)(=O)c2ccccc2F)CC1=O [Example 95, Benzo[b]thiophene-2-carboxylic acid-{(S)-1-[1-(2-fluoro-benzenesulfonyl)-3-oxo-azepan-4-ylcarbamoyl]-3-methyl-butyl}-amide] | 11 |
| CC(C)C[C@H](NC(=O)c1cnc2ccccc2n1)C(=O)N[C@@H]1CCCN(S(=O)(=O)c2cccs2)CC1=O [Example 147, Quinoxaline-2-carboxylic acid-{(S)-3-methyl-1-[3-oxo-1-(thiophene-2-sulfonyl)-azepan-4-ylcarbamoyl]-butyl}-amide] | 7.5 |
| CC(C)CC(NC(=O)c1cc2ccccc2o1)C(=O)N[C@@H]1CCCN(S(=O)(=O)c2ccccc2C#N)CC1=O (some centres unmarked) [Example 115] | 14 |
| CC(C)C[C@@H](NC(=O)c1cc2ccccc2[nH]1)C(=O)N[C@@H]1CCCN(S(=O)(=O)c2ccccn2)CC1=O (stereo in doubt) [Example 32, 1H-Indole-2-carboxylic acid {(S)-3-methyl-1-[3-oxo-1-(pyridine-2-sulfonyl)-azepan-4-ylcarbamoyl]-butyl}amide] | 17 |
| CC(C)CC(NC(=O)c1ccc(S(C)(=O)=O)cc1)C(=O)N[C@@H]1CCCN(S(=O)(=O)c2ccccc2C#N)CC1=O (some centres unmarked) [Example 114] | 14 |
| Cc1c(C(=O)N[C@H](CC(C)C)C(=O)N[C@H]2CCCN(S(=O)(=O)c3cccc[n+]3[O-])CC2=O)oc2ccc(F)cc12 [Example 192, 5-Fluoro-3-methyl-benzofuran-2-carboxylic acid {(S)-3-methyl-1-[3-oxo-1-(1-oxy-pyridine-2-sulfonyl)-azepan-4-ylcarbamoyl]-butyl}-amide] | 14 |
| CC(C)C[C@@H](NC(=O)c1cc2cc(OCCN3CCOCC3)ccc2o1)C(=O)N[C@@H]1CCCN(S(=O)(=O)c2ccccn2)CC1=O (single isomer, unassigned) [Example 19] | 2 |
| COc1ccc2oc(C(=O)N[C@H](CC(C)C)C(=O)N[C@@H]3CCCN(S(=O)(=O)c4cccc[n+]4[O-])CC3=O)cc2c1 [Example 53, 5-Methoxy-benzofuran-2-carboxylic acid {(S)-3-methyl-1[3-oxo-1-(1-oxy-pyridine-2-sulfonyl)-azepan-4-ylcarbamoyl]-butyl}amide] | 10 |
| CC(C)C[C@H](NC(=O)c1ccc2c(c1)OCO2)C(=O)N[C@H]1CCCN(Cc2ccccc2)CC1=O [Example 1, benzo[1,3]dioxole-5-carboxylic acid [(S)-1-(1-benzyl-3-oxoazepan-4-ylcarbamoyl)-3-methyl-butyl]amide] | 58 |
